Source: PubChem BioAssay AID330 (DTP/NCI, 2004)
Where “and” joins values, the source holds several entries; their conditions need not be identical. Equal values may be shown once. Inconclusive results and toxic doses are left out. How the source made its calls: active means survival T/C of 150% or more; inactive means T/C below 125% in these data.

Tested on: P388 leukemia ip, CD2F1 mice, survival T/C
Assay: NCI In Vivo Anticancer Drug Screen. Data for tumor model P388 Leukemia (intraperitoneal) in CD2F1 (CDF1) mice
Details: endpoint: median survival time, higher = longer survival
Outline: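 Mice carrying the transplanted tumor received test compound or vehicle. Survival was recorded in each group, and the value is the treated-group measurement divided by that of the vehicle-treated control group.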

[1] = dose: 60.0 mg/kg/injection, schedule: Q01DX005 (ip), vehicle: saline with Tween-80
[2] = dose: 120.0 mg/kg/injection, schedule: Q01DX005 (ip), vehicle: saline with Tween-80
[3] = dose: 240.0 mg/kg/injection, schedule: Q01DX005 (ip), vehicle: saline with Tween-80
[4] = dose: 50.0 mg/kg/injection, schedule: Q01DX009 (ip), vehicle: saline
[5] = dose: 100.0 mg/kg/injection, schedule: Q01DX009 (ip), vehicle: saline
[6] = dose: 200.0 mg/kg/injection, schedule: Q01DX009 (ip), vehicle: saline
[7] = dose: 50.0 mg/kg/injection, schedule: Q01DX009 (ip), vehicle: Klucel (hydroxypropylcellulose) (HPC)
[8] = dose: 100.0 mg/kg/injection, schedule: Q01DX009 (ip), vehicle: Klucel (hydroxypropylcellulose) (HPC)
[9] = dose: 25.0 mg/kg/injection, schedule: Q01DX001 (ip), vehicle: saline
[10] = dose: 50.0 mg/kg/injection, schedule: Q01DX001 (ip), vehicle: saline
[11] = dose: 50.0 mg/kg/injection, schedule: Q01DX005 (ip), vehicle: saline with Tween-80
[12] = dose: 100.0 mg/kg/injection, schedule: Q01DX005 (ip), vehicle: saline with Tween-80
[13] = dose: 200.0 mg/kg/injection, schedule: Q01DX005 (ip), vehicle: saline with Tween-80
[14] = dose: 100.0 mg/kg/injection, schedule: Q04DX003 (ip), vehicle: Klucel (hydroxypropylcellulose) (HPC)
[15] = dose: 200.0 mg/kg/injection, schedule: Q04DX003 (ip), vehicle: Klucel (hydroxypropylcellulose) (HPC)
[16] = dose: 400.0 mg/kg/injection, schedule: Q04DX003 (ip), vehicle: Klucel (hydroxypropylcellulose) (HPC)
[17] = dose: 100.0 mg/kg/injection, schedule: Q01DX009 (ip), vehicle: saline with Tween-80
[18] = dose: 200.0 mg/kg/injection, schedule: Q01DX009 (ip), vehicle: saline with Tween-80

Measured: T/C

O=C(Cc1nc2cc(Cl)c(Cl)cc2nc1CC(=O)c1ccccc1)c1ccccc1
inactive: [1] 102 % of control | [2] 94 % of control | [3] 96 % of control

C#CC(C)(CC)OC(=O)c1ccccc1C(=O)O (stereo not given)
inactive: [4] 100 % of control | [5] 104 % of control | [6] 95 % of control

COc1ccc(/C(N)=N/OCc2ccc(C#N)cc2)cc1
inactive: [7] 96 % of control | [8] 93 % of control | dose: 200.0 mg/kg/injection, schedule: Q01DX009 (ip), vehicle: Klucel (hydroxypropylcellulose) (HPC) 95 % of control

CC1(C)CC(C)(C)[P+]1(C)c1ccccc1
inactive: [9] 107 % of control | [10] 103 % of control

C=COC(=O)C(Cc1ccccc1)NC(=O)OCc1ccccc1 (stereo not given)
inactive: dose: 12.5 mg/kg/injection, schedule: Q01DX005 (ip), vehicle: saline with Tween-80 106 % of control | dose: 25.0 mg/kg/injection, schedule: Q01DX005 (ip), vehicle: saline with Tween-80 100 % of control | [11] 103 % of control | [12] 103 % of control | [13] 100 % of control

CCCCCn1cnc2cc(N3CCOCC3)c([N+](=O)[O-])cc2c1=O
inactive: [14] 103 % of control | [15] 96 % of control | [16] 96 % of control

CCCCOP(=O)(O)OCCCC.[V]
inactive: dose: 6.25 mg/kg/injection, schedule: Q01DX009 (ip), vehicle: saline with Tween-80 99 % of control | dose: 12.5 mg/kg/injection, schedule: Q01DX009 (ip), vehicle: saline with Tween-80 96 % of control | dose: 25.0 mg/kg/injection, schedule: Q01DX009 (ip), vehicle: saline with Tween-80 97 % of control | [17] 104 % of control | [18] 103 % of control

Cc1cc(C)nc(CC(O)c2ccc(C=O)cc2)c1 (stereo not given)
inactive: [1] 100 % of control | [2] 94 % of control | [3] 94 % of control

O=C1CC(SC(=S)N2CCOCC2)C(=O)N1 (stereo not given)
inactive: dose: 100.0 mg/kg/injection, schedule: Q04DX002 (ip), vehicle: saline 99 % of control and 103 % of control | dose: 200.0 mg/kg/injection, schedule: Q04DX002 (ip), vehicle: saline 99 % of control and 97 % of control | dose: 400.0 mg/kg/injection, schedule: Q04DX002 (ip), vehicle: saline 100 % of control and 109 % of control

CCCCOC(=O)OOC(C)(C)C
inactive: dose: 50.0 mg/kg/injection, schedule: Q01DX009 (ip), vehicle: saline with Tween-80 110 % of control | [17] 110 % of control | [18] 110 % of control

O=C(O)C1CSC(c2ccncc2)N1 (stereo not given)
inactive: [4] 96 % of control and 97 % of control | [5] 96 % of control | [6] 94 % of control

NCC(S)c1ccc(Cl)cc1 (stereo not given)
inactive: dose: 12.5 mg/kg/injection, schedule: Q01DX001 (ip), vehicle: saline 100 % of control | [9] 100 % of control | [10] 100 % of control

Oc1ccc(C(c2ccc(O)cc2)C(Cl)(Cl)Cl)cc1
inactive: dose: 50.0 mg/kg/injection, schedule: Q04DX003 (ip), vehicle: saline + Tween-80 + alcohol 104 % of control | dose: 100.0 mg/kg/injection, schedule: Q04DX003 (ip), vehicle: saline + Tween-80 + alcohol 101 % of control | dose: 200.0 mg/kg/injection, schedule: Q04DX003 (ip), vehicle: saline + Tween-80 + alcohol 103 % of control | dose: 400.0 mg/kg/injection, schedule: Q04DX003 (ip), vehicle: saline + Tween-80 + alcohol 111 % of control

COc1ccc(NNc2ccc(OC)cc2)cc1
inactive: dose: 50.0 mg/kg/injection, schedule: Q04DX003 (ip), vehicle: saline with Tween-80 100 % of control | dose: 100.0 mg/kg/injection, schedule: Q04DX003 (ip), vehicle: saline with Tween-80 92 % of control | dose: 200.0 mg/kg/injection, schedule: Q04DX003 (ip), vehicle: saline with Tween-80 92 % of control

CN(/N=C(C#N)/C(N)=N/N)c1ccccc1
inactive: dose: 100.0 mg/kg/injection, schedule: Q04DX002 (ip), vehicle: saline with Tween-80 96 % of control | dose: 200.0 mg/kg/injection, schedule: Q04DX002 (ip), vehicle: saline with Tween-80 96 % of control

CCC1C2CC3C4N(C)c5ccccc5C45CC(C2C5O)N3C1O (stereo not given)
inactive: dose: 0.31 mg/kg/injection, schedule: Q01DX009 (ip), vehicle: saline 102 % of control and 106 % of control | dose: 0.62 mg/kg/injection, schedule: Q01DX009 (ip), vehicle: saline 99 % of control and 106 % of control and 121 % of control | dose: 1.25 mg/kg/injection, schedule: Q01DX009 (ip), vehicle: saline 102 % of control and 106 % of control and 95 % of control | dose: 2.5 mg/kg/injection, schedule: Q01DX009 (ip), vehicle: saline 99 % of control and 105 % of control (2×) | dose: 5.0 mg/kg/injection, schedule: Q01DX009 (ip), vehicle: saline 102 % of control | dose: 10.0 mg/kg/injection, schedule: Q01DX009 (ip), vehicle: saline 105 % of control | dose: 15.0 mg/kg/injection, schedule: Q01DX005 (ip), vehicle: saline with Tween-80 100 % of control | dose: 30.0 mg/kg/injection, schedule: Q01DX005 (ip), vehicle: saline with Tween-80 94 % of control | [1] 93 % of control and 100 % of control | [2] 93 % of control

CCOC(=O)Nc1cc2ncc(-c3ccccc3)nc2c(N)n1
inactive: dose: 50.0 mg/kg/injection, schedule: Q01DX001 (ip), vehicle: saline with Tween-80 97 % of control | dose: 100.0 mg/kg/injection, schedule: Q01DX001 (ip), vehicle: saline with Tween-80 93 % of control | dose: 200.0 mg/kg/injection, schedule: Q01DX001 (ip), vehicle: saline with Tween-80 90 % of control

COc1cc(/C=N/NP(=S)(Oc2ccc(C(C)(C)C)cc2)Oc2ccc(C(C)(C)C)cc2)cc(OC)c1O
inactive: [7] 99 % of control | [8] 99 % of control

CC1=C(C(=O)CC(=O)C(=O)Nc2cc(Cl)c(Cl)cc2Cl)Sc2ccccc2N1
inactive: [11] 101 % of control | [12] 102 % of control | [13] 98 % of control

CCN(CC)Cc1cc(N2C(=O)CC3(CCCC3)C2=O)ccc1O
inactive: [14] 100 % of control | [15] 102 % of control | [16] 105 % of control

CC(=O)N(c1c(N)[nH]c(=O)n(C)c1=O)C1OC(CO)C(O)C(O)C1O (stereo not given)
inactive: dose: 60.0 mg/kg/injection, schedule: Q01DX005 (ip), vehicle: saline 99 % of control | dose: 120.0 mg/kg/injection, schedule: Q01DX005 (ip), vehicle: saline 99 % of control | dose: 240.0 mg/kg/injection, schedule: Q01DX005 (ip), vehicle: saline 97 % of control

CC(C)(C)OC(=O)NC(Cc1ccc(O)cc1)C(=O)ON1C(=O)CCC1=O (stereo not given)
inactive: dose: 50.0 mg/kg/injection, schedule: Q01DX005 (ip), vehicle: Klucel (hydroxypropylcellulose) (HPC) 100 % of control | dose: 100.0 mg/kg/injection, schedule: Q01DX005 (ip), vehicle: Klucel (hydroxypropylcellulose) (HPC) 106 % of control | dose: 200.0 mg/kg/injection, schedule: Q01DX005 (ip), vehicle: Klucel (hydroxypropylcellulose) (HPC) 108 % of control
